# Measured values as given in patent publication US11607421B2, “Ethanolamine-based lipid biosynthetic compounds, method of making and use thereof” (Metanoi Therapeutics, Inc., priority 2016, dated 2023).
# Like-named read-outs stand apart in the source and are kept apart here.
# Assays:
# CYP2C8 = CYP2C8 (Homo sapiens, UniProt P10632); assay: CYP inhibition in human liver microsomes
# CYP1A2 = CYP1A2 (Homo sapiens, UniProt P05177); assay: CYP inhibition in human liver microsomes
# CYP2C9 = CYP2C9 (Homo sapiens, UniProt P11712); assay: CYP inhibition in human liver microsomes
# CYP2C9, sequence (P11712 whole entry): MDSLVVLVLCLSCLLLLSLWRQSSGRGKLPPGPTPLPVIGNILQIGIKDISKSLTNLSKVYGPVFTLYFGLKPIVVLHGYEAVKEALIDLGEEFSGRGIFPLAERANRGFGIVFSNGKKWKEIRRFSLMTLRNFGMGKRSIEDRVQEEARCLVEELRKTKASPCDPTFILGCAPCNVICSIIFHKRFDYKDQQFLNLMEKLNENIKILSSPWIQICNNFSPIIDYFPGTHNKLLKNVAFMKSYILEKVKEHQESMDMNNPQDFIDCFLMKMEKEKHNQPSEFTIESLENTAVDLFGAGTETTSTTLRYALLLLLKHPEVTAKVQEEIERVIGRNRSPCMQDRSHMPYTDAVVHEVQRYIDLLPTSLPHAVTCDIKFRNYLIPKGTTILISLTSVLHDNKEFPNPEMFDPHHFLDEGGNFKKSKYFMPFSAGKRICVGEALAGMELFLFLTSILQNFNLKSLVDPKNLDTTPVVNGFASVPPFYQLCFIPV
# CYP2C19 = CYP2C19 (Homo sapiens, UniProt P33261); assay: CYP inhibition in human liver microsomes
# CYP2C19, sequence (P33261 whole entry): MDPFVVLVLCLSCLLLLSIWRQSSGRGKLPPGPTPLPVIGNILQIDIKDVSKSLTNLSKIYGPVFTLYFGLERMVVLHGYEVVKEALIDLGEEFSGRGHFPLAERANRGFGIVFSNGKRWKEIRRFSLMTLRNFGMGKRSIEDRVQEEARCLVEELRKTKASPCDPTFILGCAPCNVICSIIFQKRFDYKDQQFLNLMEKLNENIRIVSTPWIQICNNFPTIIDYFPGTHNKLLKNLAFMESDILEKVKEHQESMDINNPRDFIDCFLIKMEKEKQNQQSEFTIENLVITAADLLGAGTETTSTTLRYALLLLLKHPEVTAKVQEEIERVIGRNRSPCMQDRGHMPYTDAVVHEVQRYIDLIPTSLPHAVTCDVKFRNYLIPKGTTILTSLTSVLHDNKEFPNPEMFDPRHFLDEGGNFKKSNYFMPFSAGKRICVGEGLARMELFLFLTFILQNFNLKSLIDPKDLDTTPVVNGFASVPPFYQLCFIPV
# PC-3 cells [1] = assay: Intracellular levels of Etn and PhosE by LC-MS/MS; type: cell-based, human; conditions: 1 mg/ml, 48 h, pH 7.4
# PC-3 cells [2] = assay: Clonogenic cell survival (colony) assay; type: cell-based, human; conditions: 2 mg/ml, 48 h treatment, colonies after 10 days
# Description: (§1) Next, a clonogenic cell survival assay was performed to assess the reproductive capacity of cells upon drug removal.
# (§2) After 48 h, drug containing medium was replaced by medium containing MTT (tetrazolium bromide) at a concentration of 0.5 mg/ml. The yellow tetrazolium salt is reduced to insoluble purple formazan by viable cells. After 4 h of incubation in dark, formazan crystals produced by viable cells were dissolved by 200 μl DMSO and the amount of formazan crystals formed was quantified by recording the absorbance at 570 nm using multi-well plate reader. […] After 10 days, colonies were fixed with 4% formaldehyde, stained with crystal violet and counted.
# CYP2A6 = CYP2A6 (Homo sapiens, UniProt P11509); assay: CYP inhibition in human liver microsomes
# CYP2A6, sequence (P11509 whole entry): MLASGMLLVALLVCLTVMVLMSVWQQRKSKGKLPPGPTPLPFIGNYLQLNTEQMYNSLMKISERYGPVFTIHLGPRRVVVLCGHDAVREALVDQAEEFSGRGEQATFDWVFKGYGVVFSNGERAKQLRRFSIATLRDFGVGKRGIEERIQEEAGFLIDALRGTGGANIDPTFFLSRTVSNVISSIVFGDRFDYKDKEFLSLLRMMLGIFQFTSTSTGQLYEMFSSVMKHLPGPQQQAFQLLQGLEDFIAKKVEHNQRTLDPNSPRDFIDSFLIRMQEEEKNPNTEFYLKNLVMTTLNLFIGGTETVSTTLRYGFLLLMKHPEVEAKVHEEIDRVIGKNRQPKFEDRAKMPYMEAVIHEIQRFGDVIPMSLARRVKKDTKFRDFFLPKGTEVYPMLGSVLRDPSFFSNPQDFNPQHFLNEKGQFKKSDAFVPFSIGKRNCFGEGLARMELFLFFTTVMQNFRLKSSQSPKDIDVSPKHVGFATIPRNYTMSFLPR
# [3] = Stability in simulated gastric fluid (SGF); type: in vitro ADME; conditions: 10 μM, SGF pH 1.2, over 1 h
# Description: (§3) Samples (100 μl) were drawn at 0, 15, 30 and 60 min from SGF reaction-vials and at 0, 30, 60 and 120 min from SIF reaction-vials, quenched with acetonitrile, vortex-mixed, and centrifuged before supernatant analysis by LC-MS/MS analysis. […] For PK studies, a sparse sampling design with 3 mice per time point was used to collect blood samples at 5, 10, 15, 30 min and 1, 2, 3, 4, 5 and 6 h in K2EDTA-coated tubes. The pharmacokinetic parameters (AUClast, Cmax, CL and Vss) were calculated using non-compartmental analysis tool of Phoenix WinNonlin software (version 6.3).
# (§4) Given the extreme pH and various digestive enzymes, the GI tract presents a harsh environment to any ingested xenobiotic. Thus, many potential drug candidates are degraded in the GI tract, explaining their decreased bioavailability or inability to reach the target at effective concentrations. Simulated gastric fluid (SGF; pH 1.2) and simulated intestinal fluid (SIF; pH 6.8) closely mimic the GI tract environment and are amenable in vitro systems to evaluate degradation of a compound in GI tract (US Pharmacopoia).
# (§5) Simulated gastric fluid was prepared as per U.S. Pharmacopeia (USP) methods. Sodium chloride (2 g) and pepsin (3.2 g, from porcine stomach mucosa) were dissolved in 7.0 ml hydrochloric acid and Milli-Q water to make up the volume to 1000 ml and the pH was adjusted to 1.2. […]
# PC-3 cells [4] = assay: MTT cell proliferation assay; type: cell-based, human; conditions: MTT, 48 h, pH 7.4
# Description: as §1, §2
# [5] = Stability in simulated intestinal fluid (SIF); type: in vitro ADME; conditions: 10 μM, SIF pH 6.8, after 2 h
# Description: as §3, §4, §5
# CYP2D6 = CYP2D6 (Homo sapiens, UniProt P10635); assay: CYP inhibition in human liver microsomes
# CYP2D6, sequence (P10635 whole entry): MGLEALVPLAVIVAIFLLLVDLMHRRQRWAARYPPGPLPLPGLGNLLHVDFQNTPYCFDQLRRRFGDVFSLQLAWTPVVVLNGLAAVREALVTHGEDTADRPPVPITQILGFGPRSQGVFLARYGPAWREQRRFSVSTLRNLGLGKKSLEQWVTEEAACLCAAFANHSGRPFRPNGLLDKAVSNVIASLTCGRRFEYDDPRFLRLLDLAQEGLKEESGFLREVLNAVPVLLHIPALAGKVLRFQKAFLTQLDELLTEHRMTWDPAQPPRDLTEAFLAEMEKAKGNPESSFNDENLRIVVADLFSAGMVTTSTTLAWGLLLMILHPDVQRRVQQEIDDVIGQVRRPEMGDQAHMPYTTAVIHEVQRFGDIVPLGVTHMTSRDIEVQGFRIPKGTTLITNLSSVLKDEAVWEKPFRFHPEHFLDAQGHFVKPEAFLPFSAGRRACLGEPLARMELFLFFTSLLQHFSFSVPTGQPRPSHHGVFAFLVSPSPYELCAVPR
# CYP2B6 = CYP2B6 (Homo sapiens, UniProt P20813); assay: CYP inhibition in human liver microsomes
# CYP2B6, sequence (P20813 whole entry): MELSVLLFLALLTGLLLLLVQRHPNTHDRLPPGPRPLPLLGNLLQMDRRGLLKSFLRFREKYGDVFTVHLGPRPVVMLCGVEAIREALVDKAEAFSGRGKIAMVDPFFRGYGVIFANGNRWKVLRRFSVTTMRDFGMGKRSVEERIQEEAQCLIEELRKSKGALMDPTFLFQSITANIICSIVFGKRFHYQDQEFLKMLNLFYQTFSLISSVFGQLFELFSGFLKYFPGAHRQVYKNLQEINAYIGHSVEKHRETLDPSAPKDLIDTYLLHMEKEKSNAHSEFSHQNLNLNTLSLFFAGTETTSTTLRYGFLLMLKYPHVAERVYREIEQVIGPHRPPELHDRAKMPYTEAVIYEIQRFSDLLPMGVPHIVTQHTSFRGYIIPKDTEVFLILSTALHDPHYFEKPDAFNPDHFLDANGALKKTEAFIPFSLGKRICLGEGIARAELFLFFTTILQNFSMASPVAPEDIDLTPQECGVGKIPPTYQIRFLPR
# CYP3A4 = CYP3A4 (Homo sapiens, UniProt P08684); assay: CYP inhibition in human liver microsomes
# CYP3A4, sequence (P08684 whole entry): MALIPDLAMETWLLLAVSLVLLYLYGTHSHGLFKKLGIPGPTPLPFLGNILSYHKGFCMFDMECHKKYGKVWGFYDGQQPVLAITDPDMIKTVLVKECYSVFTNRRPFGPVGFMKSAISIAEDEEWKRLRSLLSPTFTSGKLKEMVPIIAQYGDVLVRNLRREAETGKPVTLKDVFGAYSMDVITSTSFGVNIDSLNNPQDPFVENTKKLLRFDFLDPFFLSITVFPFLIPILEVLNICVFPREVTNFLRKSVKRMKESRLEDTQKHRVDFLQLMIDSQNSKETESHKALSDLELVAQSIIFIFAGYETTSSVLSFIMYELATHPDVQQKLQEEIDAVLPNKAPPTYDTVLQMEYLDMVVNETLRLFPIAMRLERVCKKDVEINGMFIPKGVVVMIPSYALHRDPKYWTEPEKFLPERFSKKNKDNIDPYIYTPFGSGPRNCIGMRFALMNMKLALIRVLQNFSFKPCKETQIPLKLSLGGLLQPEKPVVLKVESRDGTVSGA
# [6] = Blood plasma concentration ratio assay; type: in vitro ADME, mice; conditions: whole blood; mouse blood, 37° C.; read-out: Blood to plasma ratio (BPR)
# Description: Values and error bars shown in the figure represent mean and SE, respectively.
# 100 μl and 300 μl aliquots were collected at time points 0, 15, 30 and 60 min. 100 μl water was added to each of the 100 μl aliquots followed by vortexing, centrifugation at 8000 g for 10 min, and collection of the supernatants for bioanalysis. The 300 μL aliquots were centrifuged at 8000 g for 10 min to separate the plasma, followed by collection of the supernatants for bioanalysis.
# [7] = Pharmacokinetic studies, single oral and intravenous dose; type: in vivo, BALB/c mice; conditions: male, BALB/c, mouse, plasma, analyte PhosE; for Cmax: read-out: Cmax/C0
# Description: as §3
# Nine animals per group were used for PK studies. A sparse sampling design was used to collect blood samples from animals at 5 min, 10 min, 15 min, 30 min, 1, 2, 3, 4, 5, and 6 h in K2EDTA coated tubes. Plasma was collected from blood by centrifugation of samples at 8000 g for 10 min. Plasma samples were stored below −60° C. until further analysis.
# PK parameters were calculated from the concentration-time data using the non-compartmental analysis tool of Phoenix WinNolin® software (version 6.3, Pharsight, St Louis, Mo.). The area under the concentration time curve (AUClast) was calculated by the linear trapezoidal rule. Following oral administration, peak concentration (Cmax) and time for the peak concentration (Tmax) were the observed values. The clearance (CL) and volume of distribution (Vss) were estimated following IV dose administration. The elimination rate constant value (k) was obtained by linear regression of the log-linear terminal phase of the concentration-time profile using at least three declining concentrations in terminal phase with a correlation coefficient of >0.8. The terminal half-life value (T1/2) was calculated using the equation ln 2/k. Oral bioavailability was calculated by taking the ratio of dose normalized AUClast following oral administration to IV administration.
# CYP2E1 = CYP2E1 (Homo sapiens, UniProt P05181); assay: CYP inhibition in human liver microsomes
# CYP2E1, sequence (P05181 whole entry): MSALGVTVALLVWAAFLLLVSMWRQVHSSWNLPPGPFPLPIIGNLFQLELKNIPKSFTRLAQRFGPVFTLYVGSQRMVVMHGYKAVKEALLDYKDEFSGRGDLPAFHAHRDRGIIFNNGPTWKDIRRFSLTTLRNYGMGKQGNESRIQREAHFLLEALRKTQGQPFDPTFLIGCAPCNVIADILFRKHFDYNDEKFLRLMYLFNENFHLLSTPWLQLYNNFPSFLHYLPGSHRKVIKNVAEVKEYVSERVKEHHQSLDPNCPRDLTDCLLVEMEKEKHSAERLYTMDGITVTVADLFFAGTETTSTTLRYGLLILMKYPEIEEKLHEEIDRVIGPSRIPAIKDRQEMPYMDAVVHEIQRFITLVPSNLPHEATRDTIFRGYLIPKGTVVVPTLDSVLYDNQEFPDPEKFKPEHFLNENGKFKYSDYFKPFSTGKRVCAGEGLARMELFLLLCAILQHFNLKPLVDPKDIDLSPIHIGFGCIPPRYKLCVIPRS
# FR2 = FR2 (Homo sapiens, UniProt P14207); conditions: read-out: affinity; cited from earlier work
# FR2, sequence (P14207 17-230): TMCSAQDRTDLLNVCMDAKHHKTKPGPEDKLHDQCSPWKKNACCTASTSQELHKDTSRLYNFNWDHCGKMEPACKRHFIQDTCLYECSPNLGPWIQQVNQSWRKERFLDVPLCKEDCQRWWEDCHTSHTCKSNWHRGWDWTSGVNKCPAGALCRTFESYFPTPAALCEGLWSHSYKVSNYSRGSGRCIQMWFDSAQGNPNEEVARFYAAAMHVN
# FR1 = FR1 (Homo sapiens, UniProt P15328); conditions: read-out: affinity; cited from earlier work
# FR1, sequence (P15328 25-234): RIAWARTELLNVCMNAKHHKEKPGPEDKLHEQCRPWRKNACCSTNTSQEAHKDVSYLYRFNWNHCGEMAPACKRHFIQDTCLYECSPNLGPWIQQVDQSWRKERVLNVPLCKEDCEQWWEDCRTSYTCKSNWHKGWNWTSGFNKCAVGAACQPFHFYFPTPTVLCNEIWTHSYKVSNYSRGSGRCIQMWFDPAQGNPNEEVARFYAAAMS
# KIFC1 = KIFC1 (Homo sapiens, UniProt Q9BW19); conditions: ATP-competitive, MT-noncompetitive; cited from earlier work
# [8] = test system: BT-549 breast cancer cells; conditions: cells with amplified centrosomes; cited from earlier work
# CYP1A2, sequence (P05177 whole entry): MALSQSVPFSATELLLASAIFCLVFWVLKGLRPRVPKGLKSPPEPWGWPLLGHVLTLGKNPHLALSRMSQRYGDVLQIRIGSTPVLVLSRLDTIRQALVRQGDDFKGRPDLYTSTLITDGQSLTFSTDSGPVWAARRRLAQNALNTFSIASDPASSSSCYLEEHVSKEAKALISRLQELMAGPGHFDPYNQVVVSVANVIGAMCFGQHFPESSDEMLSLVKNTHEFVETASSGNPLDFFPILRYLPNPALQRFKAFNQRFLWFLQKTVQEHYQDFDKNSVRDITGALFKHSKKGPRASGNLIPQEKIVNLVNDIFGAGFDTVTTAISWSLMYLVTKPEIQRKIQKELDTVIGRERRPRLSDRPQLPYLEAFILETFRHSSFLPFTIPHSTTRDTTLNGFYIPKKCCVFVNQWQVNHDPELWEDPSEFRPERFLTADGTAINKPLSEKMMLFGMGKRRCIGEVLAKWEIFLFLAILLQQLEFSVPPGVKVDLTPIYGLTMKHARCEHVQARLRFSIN
# CYP2C8, sequence (P10632 whole entry): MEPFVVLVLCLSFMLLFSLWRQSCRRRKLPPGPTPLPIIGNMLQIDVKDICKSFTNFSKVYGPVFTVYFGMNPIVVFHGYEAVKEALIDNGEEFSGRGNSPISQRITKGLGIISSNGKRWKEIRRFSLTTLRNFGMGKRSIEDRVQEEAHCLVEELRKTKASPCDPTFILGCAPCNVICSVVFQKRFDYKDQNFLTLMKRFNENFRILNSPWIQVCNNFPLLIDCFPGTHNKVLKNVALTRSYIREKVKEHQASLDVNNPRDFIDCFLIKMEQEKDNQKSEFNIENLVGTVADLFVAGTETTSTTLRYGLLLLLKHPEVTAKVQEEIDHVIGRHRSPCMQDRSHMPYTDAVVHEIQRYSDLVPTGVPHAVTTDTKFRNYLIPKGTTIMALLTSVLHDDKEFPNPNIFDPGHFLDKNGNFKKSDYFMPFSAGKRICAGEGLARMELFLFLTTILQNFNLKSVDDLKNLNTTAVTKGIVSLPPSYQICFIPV
smiles,measurement,setting,value
"NCCOP(=O)(O)O [PhosE, phosphoethanolamine]",IC50,CYP2C8,> 100 µM
same,IC50,CYP1A2,> 100 µM
same,IC50,CYP2C9,> 100 µM
same,IC50,CYP2C19,> 100 µM
same,increase in intracellular PhosE levels compared to control cells,PC-3 cells [1],~15 fold
same,decrease in colony numbers compared to control cells,PC-3 cells [2],ineffective in decreasing colony numbers
same,IC50,CYP2A6,> 100 µM
same,stability in SGF,[3],stable
same,inhibition of PC-3 cell proliferation,PC-3 cells [4],only showed limited inhibition of PC-3 cell proliferation up to 0.5 mg/ml
same,decrease in concentration in SIF,[5],~35%
same,IC50,CYP2D6,> 100 µM
same,IC50,CYP2B6,> 100 µM
same,IC50,CYP3A4,> 100 µM
same,IC50,"CYP3A4; 3A4-mida: CYP3A4 substrate midazolam, human liver microsomes",> 100 µM
same,IC50,"CYP3A4; 3A4-testo: CYP3A4 substrate testosterone, human liver microsomes",> 100 µM
same,blood plasma ratio at 50 μM,[6],< 1.5
same,half-life,"[7]; iv, 3 mg/kg, PhosE 3 mg/kg iv",< 1 h
same,AUC(0-t),[7]; PhosE 3 mg/kg iv,490 ng·h/mL
same,MRT last,[7]; PhosE 3 mg/kg iv,0.79 h
same,clearance,[7]; PhosE 3 mg/kg iv,102 mL/min/kg
same,Cmax,[7]; PhosE 3 mg/kg iv,1250 ng/mL
same,Vd,"[7]; PhosE 3 mg/kg iv, read-out: Vss",4.82 L/kg
same,bioavailability,"[7]; PhosE 60 mg/kg po vs 3 mg/kg iv, read-out: F (oral bioavailability)",19%
same,AUC(0-t),[7]; PhosE 60 mg/kg po,1890 ng·h/mL
same,Tmax,[7]; PhosE 60 mg/kg po,1 h
same,Cmax,[7]; PhosE 60 mg/kg po,1140 ng/mL
same,IC50,CYP2E1,> 100 µM
"Nc1nc2c(c(=O)[nH]1)N(C=O)C(CNc1ccc(C(=O)N[C@@H](CCC(=O)O)C(=O)O)cc1)CN2 (stereo partly drawn) [leucovorin, 6S 5-formyltetrahydrofolate]",Kd,FR2,0.007 µM
same,Kd,FR1,0.8 µM
CCCc1cc(C(=O)N[C@H](Cc2ccc(-c3cccc(OC(F)(F)F)c3)nc2)C(=O)N[C@@H]2CCNC2)sc1C [AZ82],Ki,KIFC1,0.043 µM
same,centrosome declustering,[8],causes centrosome declustering
CN1c2c(nc(N)[nH]c2=O)NC[C@@H]1CNc1ccc(C(=O)N[C@@H](CCC(=O)O)C(=O)O)cc1 [6S 5-methyltetrahydrofolate],Kd,FR2,0.001 µM
same,Kd,FR1,0.055 µM
